The results in this text go back to the supplement of paper PMC10307832.

What all share (test): relative viability (nuclei count vs DMSO), 5 days (fraction); higher = more cells survive
Compound in assay [1]: C1=CC2=C(C=C(C(=C2N=C1)O)N=NC3=CC4=C(C=C3)C=C(C=C4)S(=O)(=O)O)S(=O)(=O)O + Cc1nc(NC(=O)N2CCC[C@H]2C(N)=O)sc1-c1ccnc(C(C)(C)C(F)(F)F)c1 [Alpelisib] (partner 2 µM)
The essentials:
(§1)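 Medians of duplicate plates are given as relative viability. That measure is the nuclei count in treated wells divided by the count in vehicle wells. Counts were taken on 4× images of lung cancer cell lines in 1536-well plates, 5 days after pin-tool dosing the day after seeding with one drug alone or a fixed anchor-drug dose plus five library-drug doses (not always all listed) in √10 steps.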

Compound in assay [2]: C1=CC2=C(C=C(C(=C2N=C1)O)N=NC3=CC4=C(C=C3)C=C(C=C4)S(=O)(=O)O)S(=O)(=O)O + Nc1ncn([C@H]2C[C@H](O)[C@@H](CO)O2)c(=O)n1 [Decitabine] (partner 2 µM)
In short, it runs like this:
as §1

Compound in assay [3]: C1=CC2=C(C=C(C(=C2N=C1)O)N=NC3=CC4=C(C=C3)C=C(C=C4)S(=O)(=O)O)S(=O)(=O)O + O=C(CCCCCCC(=O)Nc1ccccc1)NO [Vorinostat] (partner 1 µM)
In short, it runs like this: as §1

Compound in the assay “AT-7519 + Lapatinib”: O=C(NC1CCNCC1)c1n[nH]cc1NC(=O)c1c(Cl)cccc1Cl [AT-7519] + CS(=O)(=O)CCNCc1ccc(-c2ccc3ncnc(Nc4ccc(OCc5cccc(F)c5)c(Cl)c4)c3c2)o1 [Lapatinib] (partner 2 µM)
The essentials: as §1

Consider UMC-11, for which the relative viability in assay [1] (first compound 0.08 µM) was 1.12; in assay [1] (first compound 0.253 µM), 0.954; in assay [1] (first compound 0.8 µM), 0.918; in assay [1] (first compound 2.53 µM), 0.88; in assay [1] (first compound 8 µM), 0.824; in assay [2] (first compound 0.08 µM) it was 0.506. In addition, the relative viability in assay [2] (first compound 0.253 µM) turned out to be 0.644; in assay [2] (first compound 0.8 µM), 0.734; in assay [2] (first compound 2.53 µM), 0.679; in assay [2] (first compound 8 µM), 0.638; in assay [3] (first compound 0.08 µM), 0.462; in assay [3] (first compound 0.253 µM) it was 0.367. The relative viability amounted to 0.475 in assay [3] (first compound 0.8 µM); 0.403 in assay [3] (first compound 2.53 µM); 0.392 in assay [3] (first compound 8 µM); 1.18 with AT-7519 + Lapatinib (first compound 0.01 µM); 0.988 in the assay with AT-7519 + Lapatinib (first compound 0.03162 µM); 0.519 with AT-7519 + Lapatinib (first compound 0.3162 µM). In the assay with AT-7519 + Lapatinib (first compound 1 µM), the relative viability came to 0.252.
